“And” between values parts separate entries of the source, which are not always exact repeats. Equal entries are not always repeated. Inconclusive results and toxic doses are left out. Cut-off read from the data, not from the text of the source: active = T/C of 150% or more; inactive = T/C below 125%.
Tested on: L1210 leukemia ip in BDF1 mice, survival T/C
Test: NCI In Vivo Anticancer Drug Screen. Data for tumor model L1210 Leukemia (intraperitoneal) in B6D2F1 (BDF1) mice
Conditions: endpoint: mean survival time, higher = longer survival
How it was run: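 Antitumor effect is assessed in tumor-bearing animals. Survival in the compound arm is compared with a vehicle-dosed control arm and expressed as their quotient.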

[1] = dose: 50.0 mg/kg/injection, schedule: Q01DX009 (ip), vehicle: saline with Tween-80
[2] = dose: 100.0 mg/kg/injection, schedule: Q01DX009 (ip), vehicle: saline with Tween-80
[3] = dose: 200.0 mg/kg/injection, schedule: Q01DX009 (ip), vehicle: saline with Tween-80
[4] = dose: 5.0 mg/kg/injection, schedule: Q01DX001 (ip), vehicle: saline
[5] = dose: 10.0 mg/kg/injection, schedule: Q01DX001 (ip), vehicle: saline
[6] = dose: 20.0 mg/kg/injection, schedule: Q01DX001 (ip), vehicle: saline
[7] = dose: 100.0 mg/kg/injection, schedule: Q04DX003 (ip), vehicle: Klucel (hydroxypropylcellulose) (HPC)
[8] = dose: 200.0 mg/kg/injection, schedule: Q04DX003 (ip), vehicle: Klucel (hydroxypropylcellulose) (HPC)
[9] = dose: 400.0 mg/kg/injection, schedule: Q04DX003 (ip), vehicle: Klucel (hydroxypropylcellulose) (HPC)
[10] = dose: 50.0 mg/kg/injection, schedule: Q01DX009 (ip), vehicle: saline
[11] = dose: 100.0 mg/kg/injection, schedule: Q01DX009 (ip), vehicle: saline
[12] = dose: 100.0 mg/kg/injection, schedule: Q04DX003 (ip), vehicle: saline
[13] = dose: 200.0 mg/kg/injection, schedule: Q01DX009 (ip), vehicle: saline
[14] = dose: 200.0 mg/kg/injection, schedule: Q04DX003 (ip), vehicle: saline
[15] = dose: 100.0 mg/kg/injection, schedule: Q04DX002 (ip), vehicle: saline with Tween-80
[16] = dose: 200.0 mg/kg/injection, schedule: Q04DX002 (ip), vehicle: saline with Tween-80
[17] = dose: 100.0 mg/kg/injection, schedule: Q04DX003 (ip), vehicle: saline with Tween-80
[18] = dose: 200.0 mg/kg/injection, schedule: Q04DX003 (ip), vehicle: saline with Tween-80
[19] = dose: 400.0 mg/kg/injection, schedule: Q04DX003 (ip), vehicle: saline with Tween-80

Measured: T/C

Cc1c(Cl)cccc1NC(=O)Oc1ccc(Cl)cc1Cl
inactive: [1] 94 % of control | [2] 103 % of control | [3] 106 % of control

COC1C(O)C(C)OC(O[C@@H]2C[C@H]3CC[C@@H]4[C@H](CC[C@]5(C)[C@@H](C6=CC(=O)OC6)CC[C@]45O)[C@@]3(C)[C@H](O)C2)C1O (some centres not stated)
inactive: dose: 0.63 mg/kg/injection, schedule: Q01DX001 (ip), vehicle: saline 103 % of control | dose: 1.25 mg/kg/injection, schedule: Q01DX001 (ip), vehicle: saline 101 % of control | dose: 2.5 mg/kg/injection, schedule: Q01DX001 (ip), vehicle: saline 97 % of control | [4] 94 % of control | [5] 103 % of control | [6] 106 % of control | dose: 40.0 mg/kg/injection, schedule: Q01DX001 (ip), vehicle: saline 111 % of control | dose: 80.0 mg/kg/injection, schedule: Q01DX001 (ip), vehicle: saline 101 % of control

O=S(=O)(CCCc1ccccc1)c1ccccc1
inactive: dose: 50.0 mg/kg/injection, schedule: Q01DX001 (ip), vehicle: other 102 % of control | dose: 100.0 mg/kg/injection, schedule: Q01DX001 (ip), vehicle: other 102 % of control | [7] 98 % of control | dose: 200.0 mg/kg/injection, schedule: Q01DX001 (ip), vehicle: other 104 % of control | [8] 100 % of control | dose: 400.0 mg/kg/injection, schedule: Q01DX001 (ip), vehicle: other 116 % of control | [9] 102 % of control

CCC(SC(C)=O)C(=O)O (configuration not stated)
inactive: [10] 96 % of control | [11] 91 % of control | [12] 89 % of control | [13] 91 % of control | [14] 96 % of control

Cn1c(O)c(O)c(=O)n(C)c1=O
inactive: dose: 50.0 mg/kg/injection, schedule: Q01DX009 (ip), vehicle: Klucel (hydroxypropylcellulose) (HPC) 101 % of control | dose: 100.0 mg/kg/injection, schedule: Q01DX009 (ip), vehicle: Klucel (hydroxypropylcellulose) (HPC) 98 % of control | dose: 200.0 mg/kg/injection, schedule: Q01DX009 (ip), vehicle: Klucel (hydroxypropylcellulose) (HPC) 88 % of control

CC1OC(O[C@@H]2C=C3CC[C@@H]4[C@H](CC[C@]5(C)[C@@H](c6ccc(=O)oc6)CC[C@]45O)[C@@]3(C)CC2)C(O)C(OC2OC(CO)C(O)C(O)C2O)C1O (some centres not stated)
inactive: dose: 1.0 mg/kg/injection, schedule: Q01DX015 (sc), vehicle: steriod suspending solution 95 % of control | dose: 2.0 mg/kg/injection, schedule: Q01DX015 (sc), vehicle: steriod suspending solution 98 % of control | dose: 4.0 mg/kg/injection, schedule: Q01DX015 (sc), vehicle: steriod suspending solution 96 % of control | [4] 95 % of control | dose: 8.0 mg/kg/injection, schedule: Q01DX015 (sc), vehicle: steriod suspending solution 97 % of control | [5] 106 % of control | dose: 16.0 mg/kg/injection, schedule: Q01DX015 (sc), vehicle: steriod suspending solution 103 % of control | [6] 97 % of control | dose: 32.0 mg/kg/injection, schedule: Q01DX015 (sc), vehicle: steriod suspending solution 100 % of control

COc1ccc(CCNC(=S)NCCc2ccc(OC)c(OC)c2)cc1OC
inactive: dose: 25.0 mg/kg/injection, schedule: Q01DX009 (ip), vehicle: saline 100 % of control | [10] 92 % of control | [11] 98 % of control | [12] 86 % of control | [13] 92 % of control | [14] 86 % of control

CCCCCCCCCCCCCCCC(=O)Nc1cccc2cnccc12
inactive: [7] 100 % of control | [8] 97 % of control | [9] 105 % of control

CCOC(=O)CNC(=O)C(CSC(c1ccccc1)(c1ccccc1)c1ccccc1)NC(c1ccccc1)(c1ccccc1)c1ccccc1 (configuration not stated)
inactive: [10] 89 % of control | [11] 103 % of control | [13] 92 % of control | dose: 400.0 mg/kg/injection, schedule: Q01DX009 (ip), vehicle: saline 94 % of control

CCCCC(=O)N1CCCCCC1
inactive: [15] 105 % of control | [16] 87 % of control

CCOC(=O)C(C(=O)c1ccccc1)c1cc(NS(=O)(=O)c2ccccc2)ccc1O (configuration not stated)
inactive: dose: 12.5 mg/kg/injection, schedule: Q01DX009 (ip), vehicle: saline with Tween-80 90 % of control | dose: 25.0 mg/kg/injection, schedule: Q01DX009 (ip), vehicle: saline with Tween-80 95 % of control | [1] 94 % of control and 97 % of control | [2] 86 % of control | [17] 91 % of control | [3] 86 % of control

CCC1c2ccc3cc(OC)ccc3c2C(=O)CC1C(=O)O (configuration not stated)
inactive: dose: 100.0 mg/kg/injection, schedule: Q01DX009 (sc), vehicle: steriod suspending solution 102 % of control | dose: 100.0 mg/kg/injection, schedule: Q04DX003 (sc), vehicle: steriod suspending solution 104 % of control | dose: 200.0 mg/kg/injection, schedule: Q01DX009 (sc), vehicle: steriod suspending solution 96 % of control | dose: 200.0 mg/kg/injection, schedule: Q04DX003 (sc), vehicle: steriod suspending solution 98 % of control | dose: 400.0 mg/kg/injection, schedule: Q01DX009 (sc), vehicle: steriod suspending solution 106 % of control | dose: 400.0 mg/kg/injection, schedule: Q04DX003 (sc), vehicle: steriod suspending solution 105 % of control

CCC[CH2][Sn](=[O])[OH]
inactive: [15] 91 % of control | [16] 91 % of control | dose: 400.0 mg/kg/injection, schedule: Q04DX002 (ip), vehicle: saline with Tween-80 94 % of control

C#CC(O)(c1ccccc1)c1ccccc1
inactive: dose: 100.0 mg/kg/injection, schedule: Q01DX001 (ip), vehicle: saline 103 % of control | dose: 200.0 mg/kg/injection, schedule: Q01DX001 (ip), vehicle: saline 107 % of control | dose: 400.0 mg/kg/injection, schedule: Q01DX001 (ip), vehicle: saline 100 % of control

CCC(C)NC(=O)Oc1cccc(NC(=O)OC)c1 (configuration not stated)
inactive: [17] 95 % of control | [18] 93 % of control | [19] 92 % of control

S=c1nc[nH]c2c1ncn2C1CCCCC1
inactive: dose: 47.0 mg/kg/injection, schedule: Q01DX Z (ip), vehicle: carboxymethylcellulose (CMC) 98 % of control | dose: 94.0 mg/kg/injection, schedule: Q01DX Z (ip), vehicle: carboxymethylcellulose (CMC) 98 % of control | dose: 94.0 mg/kg/injection, schedule: Q01DX Z (oral), vehicle: carboxymethylcellulose (CMC) 108 % of control | dose: 188.0 mg/kg/injection, schedule: Q01DX Z (ip), vehicle: carboxymethylcellulose (CMC) 106 % of control | dose: 188.0 mg/kg/injection, schedule: Q01DX Z (oral), vehicle: carboxymethylcellulose (CMC) 98 % of control | dose: 376.0 mg/kg/injection, schedule: Q01DX Z (ip), vehicle: carboxymethylcellulose (CMC) 102 % of control | dose: 376.0 mg/kg/injection, schedule: Q01DX Z (oral), vehicle: carboxymethylcellulose (CMC) 110 % of control | dose: 752.0 mg/kg/injection, schedule: Q01DX Z (oral), vehicle: carboxymethylcellulose (CMC) 106 % of control

CCCCCCCC(=O)N(CC)CC
inactive: dose: 25.0 mg/kg/injection, schedule: Q04DX002 (ip), vehicle: saline 103 % of control | [10] 97 % of control | dose: 50.0 mg/kg/injection, schedule: Q04DX002 (ip), vehicle: saline 103 % of control | [11] 101 % of control | dose: 100.0 mg/kg/injection, schedule: Q04DX002 (ip), vehicle: saline 100 % of control | dose: 200.0 mg/kg/injection, schedule: Q04DX002 (ip), vehicle: saline 100 % of control and 102 % of control | dose: 400.0 mg/kg/injection, schedule: Q04DX002 (ip), vehicle: saline 102 % of control

COc1ccc(Cl)cc1NC1=CC(c2ccc(Cl)cc2)OC1=O (configuration not stated)
inactive: [17] 102 % of control | [18] 100 % of control | [19] 91 % of control

CN1c2ccccc2Sc2ccccc21
inactive: dose: 50.0 mg/kg/injection, schedule: Q01DX001 (ip), vehicle: carboxymethylcellulose (CMC) 94 % of control | dose: 100.0 mg/kg/injection, schedule: Q01DX001 (ip), vehicle: carboxymethylcellulose (CMC) 96 % of control | dose: 200.0 mg/kg/injection, schedule: Q01DX001 (ip), vehicle: carboxymethylcellulose (CMC) 107 % of control

— PubChem BioAssay AID248 (DTP/NCI, 2004)
